Experimental data published in ChEMBL document CHEMBL1201862, “PubChem BioAssay data set” (2004).
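Assay format: 96-well plates, 48-hour exposure. At the GI50, growth is halved.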 Calls of active or inactive are those of the source. Rule as the data show it: active = GI50 up to about 1.1 µM and inactive = higher.

Key:
Experiment in all cases: NCI anticancer screen, dose series, 48 h
CAKI-1 = test system: CAKI-1
CCRF-CEM = test system: CCRF-CEM
DMS-114 = test system: DMS-114
HCT-116 = test system: HCT-116
HCT-15 = test system: HCT-15
HL-60 = test system: HL-60
Hs-578T = test system: Hs-578T
MDA-MB-435 = test system: MDA-MB-435
NCI-H460 = test system: NCI-H460
OVCAR-4 = test system: OVCAR-4
PC-3 = test system: PC-3
SF-268 = test system: SF-268
SK-MEL-28 = test system: SK-MEL-28
SK-OV-3 = test system: SK-OV-3
SN12C = test system: SN12C
SR = test system: SR
T47D = test system: T47D
TK-10 = test system: TK-10
UACC-257 = test system: UACC-257
UO-31 = test system: UO-31

O=C1/C(=C/c2ccccc2)CN(C(=O)CCN2CCOCC2)C/C1=C\c1ccccc1
GI50 (CAKI-1): 10.1 µM (inactive)
GI50 (CCRF-CEM): 1.38 µM (inactive)
GI50 (DMS-114): 2.88 µM (inactive)
GI50 (HCT-116): 0.778 µM (active)
GI50 (HCT-15): 2.14 µM
GI50 (HL-60): 1.32 µM (inactive)
GI50 (Hs-578T): 2.6 µM (inactive)
GI50 (MDA-MB-435): 1.9 µM (inactive)
GI50 (NCI-H460): 2.36 µM (inactive)
GI50 (OVCAR-4): 2.94 µM (inactive)
GI50 (PC-3): 2.75 µM (inactive)
GI50 (SF-268): 2.87 µM (inactive)
GI50 (SK-MEL-28): 1.86 µM (inactive)
GI50 (SK-OV-3): 10.7 µM (inactive)
GI50 (SN12C): 2.18 µM (inactive)
GI50 (SR): 1.06 µM (active)
GI50 (T47D): 3.34 µM (inactive)
GI50 (TK-10): 11.9 µM (inactive)
GI50 (UACC-257): 2.13 µM (inactive)
GI50 (UO-31): 8.97 µM (inactive)

CCO/C=C/C(C)C1(C(=O)OCC)CCCCC1=O (stereo not given)
GI50 (CAKI-1): > 100 µM (inactive)
GI50 (CCRF-CEM): > 100 µM (inactive)
GI50 (DMS-114): 86.9 µM (inactive)
GI50 (HCT-116): > 100 µM (inactive)
GI50 (HCT-15): 63.1 µM
GI50 (HL-60): 71.1 µM (inactive)
GI50 (NCI-H460): > 100 µM (inactive)
GI50 (OVCAR-4): > 100 µM (inactive)
GI50 (SF-268): > 100 µM (inactive)
GI50 (SK-MEL-28): > 100 µM (inactive)
GI50 (SK-OV-3): > 100 µM (inactive)
GI50 (SN12C): > 100 µM (inactive)
GI50 (SR): > 100 µM (inactive)
GI50 (TK-10): > 100 µM (inactive)
GI50 (UACC-257): > 100 µM (inactive)
GI50 (UO-31): > 100 µM (inactive)

Oc1ccc2c3c1OC1C(=NN=C4CCC5(O)C6Cc7ccc(O)c8c7C5(CCN6CC5CC5)C4O8)CCC4(O)C(C2)N(CC2CC2)CCC314 (stereo not given)
GI50 (CAKI-1): > 100 µM (inactive)
GI50 (CCRF-CEM): 22.9 µM (inactive)
GI50 (DMS-114): 21.6 µM (inactive)
GI50 (HCT-116): 16.6 µM (inactive)
GI50 (HCT-15): > 100 µM
GI50 (HL-60): 16.4 µM (inactive)
GI50 (NCI-H460): 21.6 µM (inactive)
GI50 (OVCAR-4): 25.6 µM (inactive)
GI50 (SF-268): > 50.4 µM (inactive)
GI50 (SK-MEL-28): 21.9 µM (inactive)
GI50 (SK-OV-3): > 51.3 µM (inactive)
GI50 (SN12C): > 41.3 µM (inactive)
GI50 (SR): 26.7 µM (inactive)
GI50 (TK-10): > 46.2 µM (inactive)
GI50 (UACC-257): 20.4 µM (inactive)
GI50 (UO-31): > 100 µM (inactive)

O=C1CCCC/C(=C/c2ccccc2)N1
GI50 (CAKI-1): > 100 µM (inactive)
GI50 (CCRF-CEM): > 100 µM (inactive)
GI50 (DMS-114): 50.4 µM (inactive)
GI50 (HCT-116): > 100 µM (inactive)
GI50 (HCT-15): > 100 µM
GI50 (HL-60): > 100 µM (inactive)
GI50 (NCI-H460): > 100 µM (inactive)
GI50 (OVCAR-4): > 100 µM (inactive)
GI50 (SF-268): > 100 µM (inactive)
GI50 (SK-MEL-28): > 100 µM (inactive)
GI50 (SK-OV-3): > 100 µM (inactive)
GI50 (SN12C): > 100 µM (inactive)
GI50 (SR): > 100 µM (inactive)
GI50 (TK-10): > 100 µM (inactive)
GI50 (UACC-257): > 100 µM (inactive)
GI50 (UO-31): > 100 µM (inactive)

NC1=NN(c2ccccc2)C(=O)C1C(=O)C(=O)Nc1nccs1 (stereo not given)
GI50 (CAKI-1): > 100 µM (inactive)
GI50 (CCRF-CEM): > 100 µM (inactive)
GI50 (DMS-114): > 100 µM (inactive)
GI50 (HCT-116): > 100 µM (inactive)
GI50 (HCT-15): > 100 µM
GI50 (HL-60): > 100 µM (inactive)
GI50 (NCI-H460): > 100 µM (inactive)
GI50 (OVCAR-4): > 100 µM (inactive)
GI50 (SF-268): > 100 µM (inactive)
GI50 (SK-MEL-28): > 100 µM (inactive)
GI50 (SK-OV-3): > 100 µM (inactive)
GI50 (SN12C): > 100 µM (inactive)
GI50 (SR): > 100 µM (inactive)
GI50 (TK-10): > 100 µM (inactive)
GI50 (UACC-257): > 100 µM (inactive)
GI50 (UO-31): > 100 µM (inactive)

Nc1ncnc2c1sc(=S)n2-c1ccccc1
GI50 (CAKI-1): > 100 µM (inactive)
GI50 (CCRF-CEM): > 100 µM (inactive)
GI50 (DMS-114): > 100 µM (inactive)
GI50 (HCT-116): > 100 µM (inactive)
GI50 (HCT-15): 96.8 µM
GI50 (HL-60): > 100 µM (inactive)
GI50 (NCI-H460): > 100 µM (inactive)
GI50 (OVCAR-4): > 100 µM (inactive)
GI50 (SF-268): > 100 µM (inactive)
GI50 (SK-MEL-28): > 100 µM (inactive)
GI50 (SK-OV-3): > 100 µM (inactive)
GI50 (SN12C): > 100 µM (inactive)
GI50 (SR): > 100 µM (inactive)
GI50 (TK-10): > 100 µM (inactive)
GI50 (UACC-257): > 100 µM (inactive)
GI50 (UO-31): 89.3 µM (inactive)

CC1(C)C(=O)C(C)(C)C1=S
GI50 (CAKI-1): > 100 µM (inactive)
GI50 (CCRF-CEM): > 100 µM (inactive)
GI50 (DMS-114): > 100 µM (inactive)
GI50 (HCT-116): > 100 µM (inactive)
GI50 (HCT-15): > 100 µM
GI50 (HL-60): > 100 µM (inactive)
GI50 (NCI-H460): > 100 µM (inactive)
GI50 (OVCAR-4): > 100 µM (inactive)
GI50 (SF-268): > 100 µM (inactive)
GI50 (SK-MEL-28): > 100 µM (inactive)
GI50 (SK-OV-3): > 100 µM (inactive)
GI50 (SN12C): > 100 µM (inactive)
GI50 (SR): > 100 µM (inactive)
GI50 (TK-10): > 100 µM (inactive)
GI50 (UACC-257): > 100 µM (inactive)
GI50 (UO-31): > 100 µM (inactive)

C=C(CN(C)C)C(=O)c1ccccc1[N+](=O)[O-]
GI50 (CAKI-1): 14.2 µM (inactive)
GI50 (DMS-114): 18.3 µM (inactive)
GI50 (HCT-116): 17.3 µM (inactive)
GI50 (HCT-15): 10.8 µM
GI50 (HL-60): 2.79 µM (inactive)
GI50 (Hs-578T): 22.9 µM (inactive)
GI50 (MDA-MB-435): 16.1 µM (inactive)
GI50 (NCI-H460): 34 µM (inactive)
GI50 (OVCAR-4): 16.9 µM (inactive)
GI50 (PC-3): 17.4 µM (inactive)
GI50 (SF-268): 27.2 µM (inactive)
GI50 (SK-MEL-28): 17.6 µM (inactive)
GI50 (SK-OV-3): 37.2 µM (inactive)
GI50 (SN12C): 17.7 µM (inactive)
GI50 (SR): 3.38 µM (inactive)
GI50 (T47D): 3.83 µM (inactive)
GI50 (TK-10): 19.5 µM (inactive)
GI50 (UACC-257): 15.8 µM (inactive)
GI50 (UO-31): 17.7 µM (inactive)
